# According to patent US11780868B1, “Homoleptic metal coordination complexes as antifungal agents” (King Abdulaziz University, priority 2023, dated 2023):
# Experiments:
# Format in all cases: cell-based, Candida albicans
# [1] = tested on: C. albicans 4085; assay: Broth microdilution MIC/MFC (CLSI M27-A4); conditions: C. albicans 4085 (Flz resistant)
# Procedure: (§1) In this work, nine strains of C. albicans procured from Charlotte Maxeke Johannesburg Academic Hospital under ethical clearance number M000402 were employed (Table 1). All the C. albicans strains were preserved at −70° C. deep freezer in 50% (v/v) anhydrous glycerol (Sigma-Aldrich St. Louis, MO, U.S.A.). For conducting experiments, cultures were revived in Sabouraud Dextrose broth (SDB; Merck, Germany) at 37° C. and 120 rpm for 24 h. Additionally, the RPMI 1640 medium and MOPS (Sigma-Aldrich, USA) were prepared as described by the Clinical and Laboratory Standards Institute (CLSI).
# (§2) The activity of C1 against Candida species (n=9) was first estimated in terms of minimum inhibitory concentration (MIC) and minimum fungicidal concentration (MFC). […] Briefly, stock solutions of Flz (used as reference; Sigma-Aldrich St. Louis, MO, U.S.A.) and the synthesized compound was prepared in 1% dimethyl sulfoxide (DMSO; Sigma-Aldrich St. Louis, MO, U.S.A.) and the test concentrations were formulated in RPMI 1640-MOPS medium. A two-fold dilution of the compound (1250-0.61 μg/mL) and reference drug (128-0.062 μg/mL) was prepared in 96 well plates which were then seeded with C. albicans inoculum (1×10^6 cells/mL) and incubated at 37° C. for 24 h. In every set of experiments, sterility control, 1% DMSO as negative control and growth control were included. Growth was quantified by reading the optical density at 620 nm in a UV-1800 SHIMADZU spectrophotometer (Shimadzu Corporation, Japan). The MIC was determined as the lowest concentration that inhibited the growth of Candida strains. To determine MFC, each well without visible growth was subcultured onto the SDA plates for 24 hours at 37° C. The lowest concentration killing ≥99.9% of Candida was taken as the MFC value of the test compound.
# [2] = tested on: C. albicans 4106; assay: Broth microdilution MIC/MFC (CLSI M27-A4); conditions: C. albicans 4106 (Flz resistant)
# Procedure: as §1, §2
# [3] = tested on: C. albicans 4175; assay: Broth microdilution MIC/MFC (CLSI M27-A4); conditions: C. albicans 4175 (Flz sensitive)
# Procedure: as §1, §2
# [4] = tested on: C. albicans 4180; assay: Broth microdilution MIC/MFC (CLSI M27-A4); conditions: C. albicans 4180 (Flz sensitive)
# Procedure: as §1, §2
# [5] = tested on: C. albicans 4251; assay: Broth microdilution MIC/MFC (CLSI M27-A4); conditions: C. albicans 4251 (Flz sensitive)
# Procedure: as §1, §2
# [6] = tested on: C. albicans 4324; assay: Broth microdilution MIC/MFC (CLSI M27-A4); conditions: C. albicans 4324 (Flz resistant)
# Procedure: as §1, §2
# [7] = tested on: C. albicans 4554; assay: Broth microdilution MIC/MFC (CLSI M27-A4); conditions: C. albicans 4554 (Flz sensitive)
# Procedure: as §1, §2
# [8] = tested on: C. albicans 5112; assay: Broth microdilution MIC/MFC (CLSI M27-A4); conditions: C. albicans 5112 (Flz resistant)
# Procedure: as §1, §2
# [9] = tested on: C. albicans SC5314; assay: Broth microdilution MIC/MFC (CLSI M27-A4); conditions: C. albicans SC5314 (control)
# Procedure: as §1, §2
# [10] = tested on: Flz susceptible strains of C. albicans; assay: Broth microdilution MIC/MFC, range over strains
# Procedure: as §1
# The activity of C1 against Candida species (n=9) was first estimated in terms of minimum inhibitory concentration (MIC) and minimum fungicidal concentration (MFC). […] Briefly, stock solutions of Flz (used as reference; Sigma-Aldrich St. Louis, MO, U.S.A.) and the synthesized compound was prepared in 1% dimethyl sulfoxide (DMSO; Sigma-Aldrich St. Louis, MO, U.S.A.) and the test concentrations were formulated in RPMI 1640-MOPS medium. […] Growth was quantified by reading the optical density at 620 nm in a UV-1800 SHIMADZU spectrophotometer (Shimadzu Corporation, Japan). The MIC was determined as the lowest concentration that inhibited the growth of Candida strains. […]
# [11] = tested on: C. albicans 4251; assay: Cell count and viability assay (Muse cell analyser); conditions: C. albicans 4251 (Flz susceptible), C1 at MFC, 24 h; untreated 90.9%
# Procedure: (§3) Quantification of Live/Dead C. albicans cells in response to C1 was carried out. The actual count of viable and dead cells of C. albicans by treatment of C1 was monitored by Cell Count and Viability assay kit. An inoculum (1×10^6 cells/mL) of both Flz sensitive (C. albicans 4251) and resistant (C. albicans 5112) C. albicans strains was prepared followed by treatment with various concentrations of C1 (0.5×MIC, 1×MIC and MFC) for 24 h at 37° C. and 150 rpm. For the negative control, only inoculum treated with 1% DMSO was used and for the positive control, hydrogen peroxide (10 mM) was used in a 1:1 ratio with the inoculum. Following incubation, the cells were then washed in PBS and centrifuged at 4000 rpm for 5 minutes at 4° C. and the final pellet was resuspended in PBS. The Cell Count and Viability assay samples were prepared by mixing 190 μL of Luminex Cell Viability Dilution Buffer and 10 μL of the sample in a 1.5 mL Eppendorf tube and incubated in the dark for 5 min at room temperature. All samples were analysed by a Guava® Muse® Cell Analyser (Luminex A DiaSorin Company, USA).
# [12] = tested on: C. albicans 5112; assay: as above; conditions: C. albicans 5112 (Flz resistant), C1 at MFC, 24 h; untreated 86.8%
# Procedure: as §3
# [13] = tested on: C. albicans 4251; assay: Cell cycle analysis (Muse cell analyser); conditions: 4 h
# Procedure: (§4) The effect of C1 on the cell cycle of C. albicans 4251 and C. albicans 5112 was determined using Cell Cycle kit MCH100106 in a Guava® Muse® Cell Analyser according to the manufacturer's instructions. The cells of the C. albicans (1×10^6 cells/mL) were exposed to C1 for 4 h at different concentrations (0.5×MIC and 1×MIC). Each sample was rinsed with fresh PBS after exposure, and the pellet was fixed in 1 mL of 70% ice-cold ethanol (Sigma Aldrich Co., USA). The Cell Cycle assay was prepared by mixing the 100 μL of Luminex® Cell Cycle dye and 100 μL of the prewashed fixed cells and incubated in the dark for 30 minutes at room temperature. All samples were analysed by a Guava® Muse® Cell Analyser (Luminex® A DiaSorin Company, USA). During the experiment, both the negative (without treatment) and positive control (10 mM H2O2 treated) were used.
# [14] = tested on: C. albicans 5112; assay: Cell cycle analysis (Muse cell analyser); conditions: 4 h
# Procedure: as §4
smiles,measurement,setting,value
"Brc1ccc([O][Co][O]c2ccc(Br)cc2C=Nc2ccc3c(c2)OCCO3)c(C=Nc2ccc3c(c2)OCCO3)c1 [Complex C1, [Co(L)2]]",Median MIC,"[1]; 37° C., 24 h",9.76 µg/mL
same,Median MFC,[1]; killing ≥99.9%,19.53 µg/mL
same,Median MIC,"[2]; 37° C., 24 h",9.76 µg/mL
same,Median MFC,[2]; killing ≥99.9%,19.53 µg/mL
same,Median MIC,"[3]; 37° C., 24 h",1.22 µg/mL
same,Median MFC,[3]; killing ≥99.9%,2.44 µg/mL
same,Median MIC,"[4]; 37° C., 24 h",2.44 µg/mL
same,Median MFC,[4]; killing ≥99.9%,4.88 µg/mL
same,Median MIC,"[5]; 37° C., 24 h",4.88 µg/mL
same,Median MFC,[5]; killing ≥99.9%,9.76 µg/mL
same,Median MIC,"[6]; 37° C., 24 h",9.76 µg/mL
same,Median MFC,[6]; killing ≥99.9%,19.53 µg/mL
same,Median MIC,"[7]; 37° C., 24 h",2.44 µg/mL
same,Median MFC,[7]; killing ≥99.9%,4.88 µg/mL
same,Median MIC,"[8]; 37° C., 24 h",19.53 µg/mL
same,Median MFC,[8]; killing ≥99.9%,78.12 µg/mL
same,Median MIC,"[9]; 37° C., 24 h",2.44 µg/mL
same,Median MFC,[9]; killing ≥99.9%,4.88 µg/mL
same,MIC value range,[10],1.22 to 4.88 µg/mL
same,live cells,[11],4.3%
same,live cells,[12],8.4%
same,cells in G0/G1 phase,"[13]; C. albicans 4251 (Flz sensitive), 0.5×MIC",62%
same,cells in G0/G1 phase,"[13]; C. albicans 4251, 1×MIC",96.55%
same,cells in G0/G1 phase,"[14]; C. albicans 5112 (Flz resistant), 0.5×MIC",50.8%
same,cells in G0/G1 phase,"[14]; C. albicans 5112, 1×MIC",94.1%
